From ChEMBL document CHEMBL4138158, “2-Arylbenzofurans from Artocarpus lakoocha and methyl ether analogs with potent cholinesterase inhibitory activity” (Eur J Med Chem, 2018)
Activity calls are given as the source filed them. The rule behind the calls is not given here.

Experiments:
[1] = target: Acetylcholinesterase (Electrophorus electricus) (UniProt O42275); experiment: Inhibition of electric eel AChE at 0.1 mg/ml using acetylthiocholine as substrate preincubated for 15 mins followed by substrate addition measured after 5 mins by Ellman's method
Sequence of Acetylcholinesterase (Electrophorus electricus) (O42275 24-633 limits assumed): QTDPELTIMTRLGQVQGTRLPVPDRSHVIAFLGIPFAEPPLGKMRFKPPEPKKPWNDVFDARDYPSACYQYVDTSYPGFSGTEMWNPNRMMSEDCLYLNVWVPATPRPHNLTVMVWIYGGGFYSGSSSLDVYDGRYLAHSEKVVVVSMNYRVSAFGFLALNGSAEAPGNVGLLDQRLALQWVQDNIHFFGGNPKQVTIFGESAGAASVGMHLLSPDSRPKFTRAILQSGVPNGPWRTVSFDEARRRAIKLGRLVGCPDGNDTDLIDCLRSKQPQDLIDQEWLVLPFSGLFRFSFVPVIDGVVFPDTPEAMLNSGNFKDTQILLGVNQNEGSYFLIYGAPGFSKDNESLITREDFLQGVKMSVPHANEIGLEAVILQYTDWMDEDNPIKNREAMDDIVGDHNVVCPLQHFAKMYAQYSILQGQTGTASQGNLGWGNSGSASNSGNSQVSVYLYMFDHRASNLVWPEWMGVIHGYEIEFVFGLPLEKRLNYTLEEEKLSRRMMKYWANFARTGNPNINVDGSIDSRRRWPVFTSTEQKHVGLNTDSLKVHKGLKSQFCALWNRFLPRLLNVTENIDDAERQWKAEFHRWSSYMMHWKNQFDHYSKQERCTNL

Cholinesterase [2] = target: T1, Cholinesterase (Homo sapiens, UniProt P06276); experiment: Inhibition of BChE (unknown origin) at 0.1 mg/ml using thiocholine as substrate preincubated for 15 mins followed by substrate addition measured after 5 mins by Ellman's method
T1 sequence (P06276 whole entry): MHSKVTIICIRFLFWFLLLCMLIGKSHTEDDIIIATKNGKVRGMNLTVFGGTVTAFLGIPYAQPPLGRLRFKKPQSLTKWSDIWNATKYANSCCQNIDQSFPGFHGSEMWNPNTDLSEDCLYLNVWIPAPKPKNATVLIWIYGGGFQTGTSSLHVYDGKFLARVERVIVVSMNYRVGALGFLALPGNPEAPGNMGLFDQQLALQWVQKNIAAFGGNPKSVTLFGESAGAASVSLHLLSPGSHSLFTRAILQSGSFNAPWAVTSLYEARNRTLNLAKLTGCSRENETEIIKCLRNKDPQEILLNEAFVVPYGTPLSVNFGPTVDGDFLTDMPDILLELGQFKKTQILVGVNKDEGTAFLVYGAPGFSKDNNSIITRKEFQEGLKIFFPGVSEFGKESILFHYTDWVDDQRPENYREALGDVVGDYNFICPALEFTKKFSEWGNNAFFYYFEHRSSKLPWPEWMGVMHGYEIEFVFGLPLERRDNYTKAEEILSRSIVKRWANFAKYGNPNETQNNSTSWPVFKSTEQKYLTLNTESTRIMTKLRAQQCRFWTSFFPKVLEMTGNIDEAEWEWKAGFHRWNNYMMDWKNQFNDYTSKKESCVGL

Cholinesterase [3] = target: T1, Cholinesterase; experiment: Inhibition of BChE (unknown origin) using thiocholine as substrate preincubated for 15 mins followed by substrate addition measured after 5 mins by Ellman's method
[4] = Selectivity ratio of IC50 for BChE (unknown origin) to IC50 for electric eel AChE
Acetylcholinesterase = Acetylcholinesterase (Electrophorus electricus, UniProt O42275); experiment: Inhibition of electric eel AChE using acetylthiocholine as substrate preincubated for 15 mins followed by substrate addition measured after 5 mins by Ellman's method
Sequence of Acetylcholinesterase (O42275 whole entry): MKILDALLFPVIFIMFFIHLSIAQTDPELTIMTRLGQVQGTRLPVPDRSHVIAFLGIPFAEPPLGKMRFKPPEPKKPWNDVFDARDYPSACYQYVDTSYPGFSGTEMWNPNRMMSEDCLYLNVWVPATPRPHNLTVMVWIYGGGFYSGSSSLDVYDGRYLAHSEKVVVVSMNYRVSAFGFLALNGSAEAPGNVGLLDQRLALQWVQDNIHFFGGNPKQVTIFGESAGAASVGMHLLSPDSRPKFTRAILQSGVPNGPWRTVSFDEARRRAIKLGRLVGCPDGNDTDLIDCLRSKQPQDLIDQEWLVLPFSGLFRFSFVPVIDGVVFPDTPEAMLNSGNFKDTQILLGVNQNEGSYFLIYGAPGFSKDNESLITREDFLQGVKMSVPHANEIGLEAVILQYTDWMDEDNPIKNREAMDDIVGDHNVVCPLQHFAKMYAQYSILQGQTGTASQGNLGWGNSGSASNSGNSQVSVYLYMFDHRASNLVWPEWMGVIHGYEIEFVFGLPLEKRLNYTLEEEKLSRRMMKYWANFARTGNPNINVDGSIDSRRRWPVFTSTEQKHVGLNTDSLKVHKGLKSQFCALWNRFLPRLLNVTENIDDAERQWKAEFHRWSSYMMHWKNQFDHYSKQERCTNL

[5] = target: Acetylcholinesterase (Electrophorus electricus) (UniProt O42275); experiment: Potency index, ratio of galantamine IC50 to compound IC50 for inhibition of electric eel AChE
Cholinesterase [6] = target: T1, Cholinesterase; experiment: Potency index, ratio of galantamine IC50 to compound IC50 for inhibition of BChE (unknown origin)

SMILES	inhibition [1]	inhibition (Cholinesterase [2])	IC50 (Cholinesterase [3])	Ratio IC50 [4]	IC50 (Acetylcholinesterase)	Ratio IC50 [5]	Ratio IC50 (Cholinesterase [6])
COc1cc(OC)c(C/C=C(\C)CCC=C(C)C)c(-c2cc3ccc(O)cc3o2)c1CC=C(C)C	inactive	inactive	–	–	–	–	–
CC(C)=CCc1c(-c2cc3ccc(O)cc3o2)cc2c3c1O[C@@]1(C)CCC([C@@H]3C1)C(C)(C)O2 (some centres undefined)	inactive	–	1560 nM	–	–	–	–
CC(C)=CCCC1(C)C=Cc2c(O)cc(-c3cc4c(O)cc(O)cc4o3)c(CC=C(C)C)c2O1 (centres undefined)	–	–	8860 nM	8.05	1100 nM	2	–
COc1cc(O)c(CC=C(C)C)c(-c2cc3ccc(O)c(C/C=C(\C)CCC=C(C)C)c3o2)c1	–	–	47200 nM	0.76	61900 nM	–	–
COc1ccc2cc(-c3cc(OC)c4c(c3CC=C(C)C)OC(C)(CCC=C(C)C)C=C4)oc2c1 (centres undefined)	inactive	inactive	–	–	–	–	–
COc1cc(-c2cc3ccc(O)cc3o2)c(CC=C(C)C)c2c1C=CC(C)(CCC=C(C)C)O2 (centres undefined)	inactive	–	310 nM	–	–	–	< 10
COc1cc(O)c(CC=C(C)C)c(-c2cc3ccc(O)cc3o2)c1C/C=C(\C)CCC=C(C)C	inactive	–	630 nM	–	–	–	< 10
COc1ccc2cc(-c3cc(O)c4c(c3CC=C(C)C)OC(C)(CCC=C(C)C)C=C4)oc2c1 (centres undefined)	inactive	–	1110 nM	–	–	–	< 10
Oc1cc(O)cc(/C=C/c2ccc(O)cc2O)c1 [OXYRESVERATROL]	inactive	–	2950 nM	–	–	–	–
CC(C)=CCC/C(C)=C/Cc1c(O)cc(O)c(CC=C(C)C)c1-c1cc2ccc(O)cc2o1 [LAKOOCHIN B]	–	–	100 nM	0.09	1080 nM	2	37
COc1cc(O)c(C/C=C(\C)CCC=C(C)C)c(-c2cc3ccc(O)cc3o2)c1CC=C(C)C	inactive	–	510 nM	–	–	–	< 10
COc1ccc2cc(-c3c(CC=C(C)C)c(O)cc(O)c3C/C=C(\C)CCC=C(C)C)oc2c1	inactive	–	990 nM	–	–	–	< 10
Oc1cc(O)c2c(c1)O[C@H](c1ccc(O)c(O)c1)[C@@H](O)C2	inactive	inactive	–	–	–	–	–
COc1cc(OC)c(CC=C(C)C)c(-c2cc3ccc(O)cc3o2)c1CC=C(C)C [LAKOOCHIN A]	–	–	13900 nM	0.5	27400 nM	–	–
CC(C)=CCCC1(C)C=Cc2c(O)cc(-c3cc4ccc(O)cc4o3)c(CC=C(C)C)c2O1 (centres undefined)	–	–	14900 nM	17.2	870 nM	2	–
